The pKd is the Kd on a negative log10 scale, so that one unit is a factor of ten. A low value points to a large Kd. By ΔTm is commonly meant the shift of the melting midpoint relative to a reference.

pKd: −log10 of the molar value.

Our source for the Kd and ΔTm values is article doi:10.1101/538157v1 (biorxiv, 2019).

For the first assay, the target named is T1, CAMKK2-KD (kinase domain of CAMKK2) (Homo sapiens, UniProt Q96RR4). Briefly: isothermal titration calorimetry. Format: binding.
T1 sequence (Q96RR4 161-449): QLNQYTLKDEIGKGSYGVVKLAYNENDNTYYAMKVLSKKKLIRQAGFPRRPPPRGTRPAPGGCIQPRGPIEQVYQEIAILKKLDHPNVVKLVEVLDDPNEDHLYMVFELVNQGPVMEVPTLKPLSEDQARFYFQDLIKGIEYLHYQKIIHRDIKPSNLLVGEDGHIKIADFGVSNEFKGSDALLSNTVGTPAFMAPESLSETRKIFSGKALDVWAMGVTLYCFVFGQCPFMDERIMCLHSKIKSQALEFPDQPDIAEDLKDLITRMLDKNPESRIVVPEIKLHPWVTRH
Conditions: not given
(In general: ITC needs no label: the signal is the heat of the interaction.)
In turn, `COc1cc(N2CCC(N(C)C)CC2)ccc1Nc1ncc(Cl)c(Nc2ccccc2P(C)(C)=O)n1` [ALK-IN-1] had a negative-log Kd (pKd) of 8.24. Still for that read-out and setting: as for `CC[C@@H]1C(=O)N(C)c2cnc(Nc3ccc(C(=O)N[C@H]4CC[C@H](N5CCN(CC6CC6)CC5)CC4)cc3OC)nc2N1C(C)C` [BI 6727], the figure is 8.09.

In another assay the target is T1, CAMKK2-KD (kinase domain of CAMKK2). Description: biochemical. Particulars: read-out: ΔTm (°C) 96-well.
Turning to `COc1cc2c(Nc3cc(Cl)c(OC)c(Cl)c3)c(C#N)cnc2cc1OCCCN1CCN(C)CC1` [Bosutinib isomer], the ΔTm at 12 µM worked out at 4.1 °C. Take `c1ccc(-c2cnc(Nc3ccc(OCCN4CCCC4)cc3)s2)cc1` [Flt3 Inhibitor III]: the shift in melting temperature (ΔTm) at 12 µM turned out to be 7.5 °C. With `CC(C)(C)c1nc2c3cc[nH]c(=O)c3c3cc(F)ccc3c2[nH]1` [JAK Inhibitor I], the ΔTm at 12 µM came to 4.7 °C.

Turning to `Cn1cc(/C=C2\C(=O)Nc3ccc(S(N)(=O)=O)cc32)c2ccccc21` [Syk Inhibitor], the ΔTm at 12 µM came out at 9.4 °C.
